The test system of one data set is RPMI8226. The experiment in a line: CellTiter-Glo cell viability, RPMI8226 (multiple myeloma). Type of data set: cell-based. On the procedure:
(§1) 15 g of the commercially available 1,3-dihydroxyacetone in the solid powder form was added into 100 mL of 5% glucose (infusion bottle), then filled into 100 bottles.
(§2) After digesting the cells and counting (counting suspended cells directly), the cells were diluted to 1.25×10^5 cells/ml, inoculated into a 384-well plate (5000 cells/well) with 40 μl per well, centrifuged at 1500 rpm for 1 min, placed into the incubator and incubated overnight.
(§3) The medicaments were diluted in gradient with a 5% glucose solution to 5×, respectively. Each well was dosed with 10 μl medicament, with 4 wells (n=4) for each concentration. The cell viability was measured with Luminescence Cell Viability Assay kit after incubating for 72 hours in an incubator.
(§4) CellTiter-Glo reagent was added into each well, the volume of which is the same as that of medium. It was shaked on a shaker for 5 min, centrifuged at 1500 rpm for 1 min, and incubated in the dark at room temperature for 15 min. Then the chemiluminescence was detected with BMG PHERAstar.
(§5) The cell viability was calculated by using the following formula: Cell viability (Viability %)=100%×(LUMsample to be measured−LUMblank)/(LUMsolvent control−LUMblank)
(§6) The curve of Log[concentration] versus cell viability was fitted using Prism 6 to calculate IC50 of sample for each cell line.
Background: In ATP-based viability assays light output follows the ATP content of the culture.

The test system of another data set is A375. The experiment in a line: CellTiter-Glo cell viability, A375 (human malignant melanoma cell). Type of data set: cell-based. How it is done:
as §1, §2, §3, §4, §5, §6

The test system of a further data set is A2780. The experiment in a line: CellTiter-Glo cell viability, A2780 (human ovarian cancer cell line). Type of data set: cell-based. How it is done:
as §1, §2, §3, §4, §5, §6

A further data set deals with SW620. The experiment in a line: CellTiter-Glo cell viability, SW620 (human colon cancer cell). In kind it is cell-based. On the procedure: as §1, §2, §3, §4, §5, §6
Another data set deals with HT29. The experiment in a line: CellTiter-Glo cell viability, HT29 (human colon cancer cell line). Type of data set: cell-based. How it is done: as §1, §2, §3, §4, §5, §6
Data set [1] deals with human large cell lung cancer H460 cell transplantation tumor. The experiment in a line: H460 cell transplantation tumor model in naked mice. Particulars: for TV (mm^3) D1 / Body weight (g) D1: D1 (first day of administration); for Effect of tumor inhibition: vs blank; for Tumor Weight TW: tumors taken out at sacrifice on 22th day; for Tumor Weight Inhibition Rate IR (%): vs blank control group tumor weight. In kind it is in vivo, Balb/c-nude naked mice. On the procedure: Naked mice were subcutaneously inoculated with H460 cells (human large cell lung cancer cell line). When tumors grew to about 100 mm^3, 36 naked mice with similar tumor volume and good shape were selected from 70 naked mice, divided into 6 groups with 6 animals in each group;
Cisplatin: 4 mg/kg, volume of injection was 0.1 mL/10 g, i.p, administration once every 5 days, three weeks in total;
Cisplatin group: 4 mg/kg, volume of injection was 0.1 mL/10 g, i.p, administration once every 5 days, three weeks in total;
Blank group: 0.9% sodium chloride injection, mode of administration was same as DHA group.
3.1.3 Naked mice were inoculated subcutaneously at the right side of back, 0.1 mL/mouse, i.e. each naked mouse was inoculated 2×10^6 cells;
3.2.1 When tumors grew to about 100 mm^3, 36 naked mice with similar tumor volume and good shape were selected from 70 naked mice, and divided into 6 groups with 6 animals in each group.
The mixture was refrigerated at 4° C. when not used. […] 4 mL of 0.6 mg/mL cisplatin solution were measured and added with 2.0 mL physiological saline to formulate a 0.4 mg/mL (4 mg/kg) cisplatin solution. The solution was refrigerated at 4° C. when not used.
The tumor volume and body weight were measured three times per week from the first day of administration. Naked mice were sacrificed on 22th day. The tumors were taken out, weighed and photographed. The tumor inhibition rate was calculated.
The calculation formula is: TV=½×a×b^2, where a and b represents length and width, respectively.
The calculation formula is: RTV=TVt/TV1, where TV1 is a tumor volume when being caged and administrated (i.e., d1), TVt is a tumor volume at each measurement.
The calculation formula is: […]
TRTV: RTV of treatment group; CRTV: RTV of blank control group.
TTW: tumor weight of treatment group; CTW: tumor weight of blank control group; TW: tumor weight.

A further data set deals with MDA-MB-231. The experiment in a line: CellTiter-Glo cell viability, MDA-MB-231 (human breast cancer cell). Particulars: 72 hours, n=4, read-out: IC50 calculated based on the concentration of dihydroxyacetone. On the procedure: as §1, §2, §3, §4, §5, §6
The conditions of data set [2]: at pH 6.0; cited from earlier work.
The mark [3] stands for this setting: H460 tumor naked mice, cisplatin 4 mg/kg i.p. once every 5 days, DHA p.o. 0.1 mL/10 g bid.
Where [4] appears, read: D20, H460 tumor naked mice, cisplatin 4 mg/kg i.p. once every 5 days, DHA p.o. 0.1 mL/10 g bid.
The mark [5] stands for this setting: cisplatin 4 mg/kg i.p. once every 5 days, DHA p.o. 0.1 mL/10 g bid.

Read-outs that look alike come from different tables or passages of the source.

Regarding `N.N.[Cl][Pt][Cl]` [DDP, cis-diammine platinum dichloride, reference compound], in the data set on RPMI8226 (RPMI8226, 72 hours, n=4, read-out: IC50), the IC50 was 0.00579 mM. For the same compound, the IC50 in the data set with A375 (A375, 72 hours, n=4, read-out: IC50) was 0.00825 mM. Further, the IC50 in the data set on A2780 (A2780, 72 hours, n=4, read-out: IC50) turned out to be 0.0322 mM. For the same compound, the IC50 in the data set on SW620 (SW620, 72 hours, n=4, read-out: IC50) was determined as 0.0244 mM. The IC50 in the data set with HT29 (HT29, 72 hours, n=4, read-out: IC50) is 0.0486 mM. In addition, in data set [1] (H460 tumor naked mice), the “TV (mm^3) D1” value worked out at 90.30 ± 5.61 mm^3, the “Body temperature” value is recorded as “decreased” and the “Effect of tumor inhibition” value is “significant effect of tumor inhibition”. Also, the “Body weight (g) D1” value in data set [1] (setting [3]) was determined as 21.1 ± 0.9 g. In data set [1] (setting [4]), the “Body weight (g) D20” value amounted to 17.6 ± 0.7 g and the “TV (mm^3) D20” value stood at 972.1 ± 289.5 mm^3. Besides, the “Body weight during the whole test” value in data set [1] (H460 tumor naked mice, whole test) is on record as “decreased significantly”. For the same compound, the “Body weight decrease at the end of the test” value in data set [1] (end of the test, H460 tumor naked mice) is given as “about 16.7%”. In data set [1] (setting [5]), the “Tumor Weight TW” value is 0.65 ± 0.23 g and the “Tumor Weight Inhibition Rate IR (%)” value is reported as 44.6%.
For `O=C(CO)CO` [Dihydroxyacetone, 1,3-dihydroxyacetone], the IC50 in the data set with MDA-MB-231 was 7.95 mM; in the data set with RPMI8226 (Homo sapiens, RPMI-8226, 72 h, read-out: IC50 calculated based on the concentration of dihydroxyacetone), 1.81 mM; with A375 (Homo sapiens, A-375, 72 h, read-out: IC50 calculated based on the concentration of dihydroxyacetone) it was 6.18 mM; in the data set on A2780 (Homo sapiens, A2780, 72 h, read-out: IC50 calculated based on the concentration of dihydroxyacetone), 10.6 mM; in the data set with SW620 (Homo sapiens, SW-620, 72 h, read-out: IC50 calculated based on the concentration of dihydroxyacetone), 8.54 mM; in the data set with HT29 (Homo sapiens, HT-29, 72 h, read-out: IC50 calculated based on the concentration of dihydroxyacetone), 4.37 mM. The “TV (mm^3) D1” value in data set [1] (H460 tumor naked mice) is reported as 90.47 ± 9.91 mm^3. In data set [1] (setting [3]), the “Body weight (g) D1” value was determined as 21.4 ± 0.7 g. The “Body weight (g) D20” value in data set [1] (setting [4]) is 23.7 ± 1.3 g. In data set [1] (setting [4]), the “TV (mm^3) D20” value stood at 2300.4 ± 585.1 mm^3. Also, the “RTV D20 (relative tumor volume)” value in data set [1] (D20, RTV=TVt/TV1, cisplatin 4 mg/kg i.p. once every 5 days, DHA p.o. 0.1 mL/10 g bid) was found to be 25.5 ± 6.2. In addition, the “Effect of tumor inhibition” value in data set [1] (H460 tumor naked mice) is recorded as “did not exhibit a significant effect of tumor inhibition”. In addition, in data set [1] (final, vs blank control group RTV, cisplatin 4 mg/kg i.p. once every 5 days, DHA p.o. 0.1 mL/10 g bid), the “T/C (%) relative tumor proliferation rate” value is 142.0%. For the same compound, the Toxic reaction entry in data set [1] (mouse, in vivo) is on record as “no toxic reaction”. The “Tumor Weight TW” value in data set [1] (setting [5]) was 1.76 ± 0.44 g. In data set [1] (setting [5]), the “Tumor Weight Inhibition Rate IR (%)” value is given as −50.6%. Also, the Stability result in data set [2] is “stable”.

The values above are taken from patent US10300026B2, “Use of dihydroxyacetone in preparation of anti-cancer medicaments” (priority 2015, dated 2019).
